Laboratory results: US20220220145A1, “CYCLIC PHOSPHATE COMPOUNDS” (priority 2019, published 2022)

Experiment: Tissue distribution following oral administration of reference compounds and the disclosed compounds
Assay type: in vivo
Conditions: rats; for levels of nucleoside phosphates in the liver compared to the reference compounds: oral administration, statement in words summarising Table 1
Experimental: The liver specificity of the disclosed compounds is compared relative to a corresponding active compound in liver and other organs that could be targets of toxicity.
Reference compounds and the cyclic phosphate compounds were administered at 5-50 mg/kg to fasted rats by oral gavage. Plasma concentrations of the metabolites, and parent compounds in circulation and in the hepatic portal vein were determined by HPLC-UV, and the liver, small intestine, and other organ concentrations were measured by LC-MS using standard chromatography methods.

Compound	levels of nucleoside phosphates in the liver compared to the reference compounds	NUCHPV: ratio of new compound vs corresponding reference compound in nucleoside level in hepatic portal vein (HPV) (one hour after oral administration at 5 mg/kg nucleoside equivalent dose, hepatic portal vein)	NMPliver: ratio of new compound vs corresponding reference compound in nucleoside monophosphate level in the liver (one hour after oral administration at 5 mg/kg nucleoside equivalent dose, liver)	NUCblood: ratio of new compound vs corresponding reference compound in nucleoside level in systemic blood (one hour after oral administration at 5 mg/kg nucleoside equivalent dose, systemic blood)
[2H]C([2H])([2H])c1cn([C@H]2C[C@@H]3OP(=O)(OCc4ccccc4C(=O)OCCC)OC[C@H]3O2)c(=O)[nH]c1=O (stereo partly drawn) [Compound 106, Propyl 2-((((4aR,6R,7aS)-6-(5-(methyl-d3)-2,4-dioxo-3,4-dihydropyrimidin-1(2H)-yl)-2-oxidotetrahydro-4H-furo[3,2-d][1,3,2]dioxaphosphinin-2-yl)oxy)methyl)benzoate]	substantially higher levels			
CC(C)OC(=O)c1ccccc1COP1(=O)OC[C@H]2O[C@@H](n3ccc(=O)[nH]c3=O)[C@](C)(F)[C@@H]2O1 (stereo partly drawn) [Compound 107, Isopropyl 2-((((4aR,6R,7R,7aR)-6-(2,4-dioxo-3,4-dihydropyrimidin-1(2H)-yl)-7-fluoro-7-methyl-2-oxidotetrahydro-4H-furo[3,2-d][1,3,2]dioxaphosphinin-2-yl)oxy)methyl)benzoate]	substantially higher levels			
[2H]C([2H])([2H])c1cn([C@H]2C[C@H](O)[C@@H](CO)O2)c(=O)[nH]c1=O [Thymidine-d3]		1.0	1.0	1.0
